The target in experiment [1] is T1, catalytic domain of human Bub1 (amino acids 704-1085) (Homo sapiens, UniProt O43683).
T1 construct: catalytic domain of human Bub1 (amino acids 704-1085); His6 (N); made in house; host or cells: Hi5 insect cells
Nature of the experiment: Bub1 kinase assay (TR-FRET). The class given is biochemical. The protocol:
To this end, 100-fold concentrated compound solutions (in DMSO) were previously prepared by serial dilution (1:3.4) of 2 mM stocks in a clear low volume 384-well source microtiter plate (Greiner Bio-One, Frickenhausen, Germany), from which 50 nL of compounds were transferred into a black low volume test microtiter plate from the same supplier. […] The resulting mixture (5 μL final volume) was incubated at 22° C. during 60 min., and the reaction was stopped by the addition of 5 μL of an aqueous EDTA-solution (50 mM EDTA, in 100 mM HEPES pH 7.5 and 0.2% (w/v) bovine serum albumin) which also contained the TR-FRET detection reagents (0.2 μM streptavidin-XL665 [Cisbio Bioassays, Codolet, France] and 1 nM anti-phosho-Serine antibody [Merck Millipore, cat. #35-001] and 0.4 nM LANCE EU-W1024 labeled anti-mouse IgG antibody [Perkin-Elmer, product no. AD0077, alternatively a Terbium-cryptate-labeled anti-mouse IgG antibody from Cisbio Bioassays can be used]). The stopped reaction mixture was further incubated 1 h at 22° C. in order to allow the formation of complexes between peptides and detection reagents. Subsequently, the amount of product was evaluated by measurement of the resonance energy transfer from the Eu-chelate-antibody complex recognizing the Phosphoserine residue to the streptavidin-XL665 bound to the biotin moiety of the peptide. […] IC50 values were calculated by fitting the normalized inhibition data to a 4-parameter logistic equation (Minimum, Maximum, IC50, Hill; Y=Max+(Min−Max)/(1+(X/IC50)Hill)).
In general terms: Time-resolved FRET reads energy transfer from a long-lived donor to a nearby acceptor.

In experiment [2] the test system is HeLa human cervical cancer cell line. Description: Proliferation assay (HeLa cell line).
Method: Cultivated tumor cells (cells were ordered from ATCC) were plated at a density of 3000 cells/well in a 96-well multititer plate in 200 μL of growth medium supplemented 10% fetal calf serum. After 24 hours, the cells of one plate (zero-point plate) were stained with crystal violet (see below), while the medium of the other plates was replaced by fresh culture medium (200 μL), to which the test substances were added in various concentrations (0 μM, as well as in the range of 0.001-10 μM; the final concentration of the solvent dimethyl sulfoxide was 0.5%). The cells were incubated for 4 days in the presence of test substances. Cell proliferation was determined by staining the cells with crystal violet: the cells were fixed by adding 20 μL/measuring point of an 11% glutaric aldehyde solution for 15 minutes at room temperature. After three washing cycles of the fixed cells with water, the plates were dried at room temperature. The cells were stained by adding 100 μL/measuring point of a 0.1% crystal violet solution (pH 3.0). After three washing cycles of the stained cells with water, the plates were dried at room temperature. The dye was dissolved by adding 100 μL/measuring point of a 10% acetic acid solution. Absorption was determined by photometry at a wavelength of 595 nm. The change of cell number, in percent, was calculated by normalization of the measured values to the absorption values of the zero-point plate (=0%) and the absorption of the untreated (0 μm) cells (=100%). The IC50 values were determined by means of a 4 parameter fit.
The test system of experiment [3] is HeLa human cervical tumor cells. Nature of the experiment: Proliferation Assay (HeLa+Paclitaxel). The settings on record: read-out: Biological Assay 3.0: Proliferation Assay (HeLa + Paclitaxel):, 3 nM paclitaxel, 92 hours with test substance.
Method: Proliferation Assay (HeLa+Paclitaxel):
Cultivated HeLa human cervical tumor cells (DSMZ ACC-57) were plated at a density of 3000 cells/well in a 96-well multititer plate in 200 μL of growth medium supplemented 10% fetal calf serum. After 24 hours, the cells of one plate (zero-point plate) were stained with crystal violet (see below). The medium of the other plates was supplemented with 3 nM of paclitaxel (Sigma-Aldrich) and the cells were incubated at 37° C. After 4 hours the test substances were added in various concentrations (0 μM, as well as in the range of 0.001-10 μM; the final concentration of the solvent dimethyl sulfoxide was adjusted to 0.1%) using a Hewlett-Packard HP D300 Digital Dispenser. The cells were incubated for another 92 hours at 37° C. in the presence of test substances. Cell proliferation was determined by staining the cells with crystal violet: the cells were fixed by adding 20 μL/measuring point of an 11% glutaric aldehyde solution for 15 minutes at room temperature. After three washing cycles of the fixed cells with water, the plates were dried at room temperature. The cells were stained by adding 100 μL/measuring point of a 0.1% crystal violet solution (pH 3.0). After three washing cycles of the stained cells with water, the plates were dried at room temperature. The dye was dissolved by adding 100 μL/measuring point of a 10% acetic acid solution. Absorption was determined by photometry at a wavelength of 595 nm. The change of cell number, in percent, was calculated by normalization of the measured values to the absorption values of the zero-point plate (=0%) and the absorption of the untreated (0 μm) cells (=100%). The IC50 values were determined by means of a 4 parameter fit.
[4] abbreviates: 10 μM ATP, 1 μM peptide substrate, read-out: Biological Assay 1: Bub1 kinase assay median IC50.
Where [5] appears, read: Homo sapiens, 96 h, read-out: Biological Assay 2: Proliferation assay (HeLa cell line) median IC50.
Where [6] appears, read: Homo sapiens, 96 h, read-out: Biological Assay 2: Proliferation assay (HeLa cell line) median IC50, HeLa, 4 days incubation, crystal violet.

pIC50: −log10 of the molar value. Where two headings read alike, the source gives them in different places.

T1 sequence (O43683 704-1085): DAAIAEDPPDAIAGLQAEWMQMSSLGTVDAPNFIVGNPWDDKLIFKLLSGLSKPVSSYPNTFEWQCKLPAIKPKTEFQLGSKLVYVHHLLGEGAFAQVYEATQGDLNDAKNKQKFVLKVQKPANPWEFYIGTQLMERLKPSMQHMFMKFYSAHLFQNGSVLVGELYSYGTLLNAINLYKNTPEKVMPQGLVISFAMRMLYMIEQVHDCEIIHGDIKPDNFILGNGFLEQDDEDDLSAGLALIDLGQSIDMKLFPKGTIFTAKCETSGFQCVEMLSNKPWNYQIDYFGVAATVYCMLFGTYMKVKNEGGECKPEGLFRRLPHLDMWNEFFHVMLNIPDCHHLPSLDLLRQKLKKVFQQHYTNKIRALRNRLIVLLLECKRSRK

For the compound `CN1CCN(CCCOc2cnc(-c3nn(Cc4c(F)cc(OCC5CC5)cc4F)c4ccccc34)nc2Nc2ccncc2Cl)CC1` [Example 2-1-1, N-(3-chloropyridin-4-yl)-2-{1-[4-(cyclopropylmethoxy)-2,6-difluorobenzyl]-1H-indazol-3-yl}-5-[3-(4-methylpiperazin-1-yl)propoxy]pyrimidin-4-amine], the values for the pIC50 in experiment [1] (setting [4]), in experiment [2] (setting [5]) and in experiment [3] were 8.00, 5.96 and 7.16, respectively.

As for `Fc1cc(OCC2CC2)cc(F)c1Cn1nc(-c2ncc(OCCCN3CCOCC3)c(Nc3ccncc3Cl)n2)c2ccccc21` [Example 2-1-2, N-(3-chloropyridin-4-yl)-2-{1-[4-(cyclopropylmethoxy)-2,6-difluorobenzyl]-1H-indazol-3-yl}-5-[3-(morpholin-4-yl)propoxy]pyrimidin-4-amine], the values for the pIC50 in experiment [1] (setting [4]), in experiment [2] (setting [5]) and in experiment [3] were 7.30, 5.24 and 6.12, respectively.

`CCOc1cc(F)c(Cn2nc(-c3ncc(OCCCN4CCOCC4)c(Nc4ccnc(NC(C)=O)c4)n3)c3ccccc32)c(F)c1` [Example 2-1-3, N-[4-({2-[1-(4-ethoxy-2,6-difluorobenzyl)-1H-indazol-3-yl]-5-[3-(morpholin-4-yl)-propoxy]pyrimidin-4-yl}amino)pyridin-2-yl]acetamide]: the results for the pIC50 in experiment [1] (setting [4]), in experiment [2] (setting [5]) and in experiment [3] were 8.17, 5.47 and 7.11, respectively.

As to `CCOc1cc(F)c(Cn2nc(-c3ncc(OCCCN4CCN(C)CC4)c(Nc4ccnc(NC(C)=O)c4)n3)c3ccccc32)c(F)c1` [Example 2-1-4, N-[4-({2-[1-(4-ethoxy-2,6-difluorobenzyl)-1H-indazol-3-yl]-5-[3-(4-methylpiperazin-1-yl)propoxy]pyrimidin-4-yl}amino)pyridin-2-yl]acetamide], the pIC50 was 8.34 in experiment [1] (setting [4]), 5.70 in experiment [2] (setting [5]) and 6.80 in experiment [3].

For `CCOc1cc(F)c(Cn2nc(-c3ncc(OCCCN4CCN(CC(F)(F)F)CC4)c(Nc4ccnc(NC(C)=O)c4)n3)c3ccccc32)c(F)c1` [Example 2-1-5, N-{4-[(2-[1-(4-ethoxy-2,6-difluorobenzyl)-1H-indazol-3-yl]-5-{3-[4-(2,2,2-tri-fluoroethyl)piperazin-1-yl]propoxy}pyrimidin-4-yl)amino]pyridin-2-yl}acetamide], the pIC50 was 7.64 in experiment [1], under 5.00 in experiment [2] (setting [6]) and 6.36 in experiment [3].

Regarding `CCOc1cc(F)c(Cn2nc(-c3ncc(OCCCN4CCN(C)CC4)c(Nc4ccncn4)n3)c3ccccc32)c(F)c1` [Example 2-1-6, 2-[1-(4-ethoxy-2,6-difluorobenzyl)-1H-indazol-3-yl]-5-[3-(4-methylpiperazin-1-yl)propoxy]-N-(pyrimidin-4-yl)pyrimidin-4-amine], the pIC50 in experiment [1] (setting [4]) was 8.02; in experiment [2] (setting [5]) it was 5.96; in experiment [3] it was 6.07.

`CCOc1cc(F)c(Cn2nc(-c3ncc(OCCCN4CCN(C)CC4)c(Nc4ccnc(C)n4)n3)c3ccccc32)c(F)c1` [Example 2-1-7, 2-[1-(4-ethoxy-2,6-difluorobenzyl)-1H-indazol-3-yl]-5-[3-(4-methylpiperazin-1-yl)propoxy]-N-(2-methylpyrimidin-4-yl)pyrimidin-4-amine]: the pIC50 in experiment [1] (setting [4]) is 7.92; in experiment [2] (setting [5]), 5.43; in experiment [3], 6.37.

Consider `CCOc1cc(F)c(Cn2nc(-c3ncc(OCCCN4CCN(C)CC4)c(Nc4ccnc(C)c4)n3)c3ccccc32)c(F)c1` [Example 2-1-8, 2-[1-(4-ethoxy-2,6-difluorobenzyl)-1H-indazol-3-yl]-5-[3-(4-methylpiperazin-1-yl)propoxy]-N-(2-methylpyridin-4-yl)pyrimidin-4-amine], for which the pIC50 in experiment [1] (setting [4]) is 7.55; in experiment [2] (setting [5]), 5.92; in experiment [3], 6.43.

Turning to `Fc1cc(OCC(F)F)cc(F)c1Cn1nc(-c2ncc(OCCCN3CCOCC3)c(Nc3ccncn3)n2)c2ccccc21` [Example 2-1-9, 2-{1-[4-(2,2-difluoroethoxy)-2,6-difluorobenzyl]-1H-indazol-3-yl}-5-[3-(morpholin-4-yl)propoxy]-N-(pyrimidin-4-yl)pyrimidin-4-amine], the pIC50 is 7.72 in experiment [1] (setting [4]), 5.43 in experiment [2] (setting [5]) and 6.31 in experiment [3].

Turning to `CCOc1cc(F)c(Cn2nc(-c3ncc(OCCCN4CCN(C)CC4)c(Nc4cc(C)ncc4C)n3)c3ccccc32)c(F)c1` [Example 2-1-10, N-(2,5-dimethylpyridin-4-yl)-2-[1-(4-ethoxy-2,6-difluorobenzyl)-1H-indazol-3-yl]-5-[3-(4-methylpiperazin-1-yl)propoxy]pyrimidin-4-amine], the values for the pIC50 in experiment [1] (setting [4]), in experiment [2] (setting [5]) and in experiment [3] were 6.60, 6.26 and 6.80, respectively.

For the compound `Cc1cc(Nc2nc(-c3nn(Cc4c(F)cc(OCC5CC5)cc4F)c4ccccc34)ncc2OCCCN2CCOCC2)ccn1` [Example 2-1-11, 2-{1-[4-(cyclopropylmethoxy)-2,6-difluorobenzyl]-1H-indazol-3-yl}-N-(2-methylpyridin-4-yl)-5-[3-(morpholin-4-yl)propoxy]pyrimidin-4-amine], in experiment [1] (setting [4]), the pIC50 is 6.43.

As to `CCOc1cc(F)c(Cn2nc(-c3ncc(OCCCCN4CC(F)(F)C4)c(Nc4ccncc4Cl)n3)c3ccccc32)c(F)c1` [Example 2-2-1, N-(3-chloropyridin-4-yl)-5-[4-(3,3-difluoroazetidin-1-yl)butoxy]-2-[1-(4-ethoxy-2,6-difluorobenzyl)-1H-indazol-3-yl]pyrimidin-4-amine], the pIC50 was 7.72 in experiment [1], 5.05 in experiment [2] (setting [6]) and 6.85 in experiment [3].

`CCOc1cc(F)c(Cn2nc(-c3ncc(OCCCCN4CC(F)C4)c(Nc4cc(C)ncc4C)n3)c3ccccc32)c(F)c1` [Example 2-3-1, N-(2,5-dimethylpyridin-4-yl)-2-[1-(4-ethoxy-2,6-difluorobenzyl)-1H-indazol-3-yl]-5-[4-(3-fluoroazetidin-1-yl)butoxy]pyrimidin-4-amine]: the pIC50 in experiment [1] is 7.41; in experiment [2] (setting [6]) it was 5.85; in experiment [3] it was 7.48.

With `CCOc1cc(F)c(Cn2nc(-c3ncc(OCCCCN4CC(F)(F)C4)c(Nc4ccnc(C)n4)n3)c3ccccc32)c(F)c1` [Example 2-3-2, 5-[4-(3,3-difluoroazetidin-1-yl)butoxy]-2-[1-(4-ethoxy-2,6-difluorobenzyl)-1H-indazol-3-yl]-N-(2-methylpyrimidin-4-yl)pyrimidin-4-amine], the results for the pIC50 in experiment [1], in experiment [2] (setting [6]) and in experiment [3] were 7.47, 5.03 and 7.59, respectively.

`CCOc1cc(F)c(Cn2nc(-c3ncc(OCCCCN4CC(F)C4)c(Nc4ccnc(C)n4)n3)c3ccccc32)c(F)c1` [Example 2-3-3, 2-[1-(4-ethoxy-2,6-difluorobenzyl)-1H-indazol-3-yl]-5-[4-(3-fluoroazetidin-1-yl)butoxy]-N-(2-methylpyrimidin-4-yl)pyrimidin-4-amine]: the values for the pIC50 in experiment [1], in experiment [2] (setting [6]) and in experiment [3] were 7.92, 5.43 and 7.64, respectively.

With `CCOc1cc(F)c(Cn2nc(-c3ncc(OCCCCN4CCC(F)(F)CC4)c(Nc4ccnc(C)n4)n3)c3ccccc32)c(F)c1` [Example 2-3-4, 5-[4-(4,4-difluoropiperidin-1-yl)butoxy]-2-[1-(4-ethoxy-2,6-difluorobenzyl)-1H-indazol-3-yl]-N-(2-methylpyrimidin-4-yl)pyrimidin-4-amine], the pIC50 in experiment [1] was 7.31; in experiment [2] (setting [6]), under 5.00; in experiment [3], 7.29.

As for `CCOc1cc(F)c(Cn2nc(-c3ncc(OCCCCN4CCC(F)(F)CC4)c(Nc4cc(C)ncc4C)n3)c3ccccc32)c(F)c1` [Example 2-3-5, 5-[4-(4,4-difluoropiperidin-1-yl)butoxy]-N-(2,5-dimethylpyridin-4-yl)-2-[1-(4-ethoxy-2,6-difluorobenzyl)-1H-indazol-3-yl]pyrimidin-4-amine], the values for the pIC50 in experiment [1], in experiment [2] (setting [6]) and in experiment [3] were 6.64, 5.17 and 7.51, respectively.

As for `CCOc1cc(F)c(Cn2nc(-c3ncc(OCCN4CCOCC4)c(Nc4ccncc4)n3)c3ccccc32)c(F)c1` [Example 3-1-1, 2-[1-(4-ethoxy-2,6-difluorobenzyl)-1H-indazol-3-yl]-5-[2-(morpholin-4-yl)ethoxy]-N-(pyridin-4-yl)pyrimidin-4-amine, reference compound], the pIC50 in experiment [2] (setting [6]) was 5.05; in experiment [2] (read-out: Biological Assay 2: Proliferation assay (HeLa cell line) median IC50, 4 days incubation, crystal violet), under 5.00; in experiment [3] it was 6.59.

The values above are taken from patent publication US20170275269A1, “BENZYL SUBSTITUTED INDAZOLES AS BUB1 KINASE INHIBITORS” (Bayer Pharma Aktiengesellschaft, priority 2014, published 2017).
